Counter-ions that a name gives are not always drawn.
Legend:
p110α/p85 = p110α/p85 (Homo sapiens, UniProt P42336); assay: Reversible inhibition of isolated enzyme, lipid kinase assay; format: biochemical; conditions: recombinant enzyme, 100 μM ATP, 1 hr, average of two experiments
Procedure: Compounds were evaluated for their ability to inhibit Class I PI 3-kinase enzymes p110δ/p85, p110α/p85, and p110β/p85. Reaction mixtures comprising 0.1 μg of a recombinant enzyme, 10 μg of L-α-phosphatidylinositol, and 2× Lipid Kinase Buffer (40 mM Tris-HCl, pH 7.4, 200 mM NaCl, 1 mM EDTA), which contains either DMSO only as a control or the test compound in DMSO (the final DMSO concentration is 1%), were activated by the addition of an ATP mix (5 mM MgCl2, 100 μM ATP, and 0.1 μL [γ^33P]ATP). Reactions were incubated at room temperature for 1 hr, and then stopped by the addition of 1M HCl. The lipids were then extracted using a two step procedure. Firstly, 200 μL of chloroform/methanol (1:1) was added, the biphasic reactions mixed and centrifuged briefly, and the inorganic phase was removed and discarded. Following this, 80 μL of methanol:HCl (1:1) was added and the same procedure followed. The organic phase (70 μL) was then transferred to a clean 1.6 mL tube and the reactions were dried using a Speedvac, with no heating, for 30 min. The reactions were spotted onto TLC plates (Merck Ltd) and developed for 1 hr in propanol-1:2 M acetic acid (13:7). The TLC plates were then dried at room temperature and quantified using a phosphorimager (StormImager, Amersham). Nine compound concentrations were used for each test compound to determine its IC50 value. Each experiment was performed twice and the average IC50 value is used herein.

p110α/p85, sequence (P42336 whole entry): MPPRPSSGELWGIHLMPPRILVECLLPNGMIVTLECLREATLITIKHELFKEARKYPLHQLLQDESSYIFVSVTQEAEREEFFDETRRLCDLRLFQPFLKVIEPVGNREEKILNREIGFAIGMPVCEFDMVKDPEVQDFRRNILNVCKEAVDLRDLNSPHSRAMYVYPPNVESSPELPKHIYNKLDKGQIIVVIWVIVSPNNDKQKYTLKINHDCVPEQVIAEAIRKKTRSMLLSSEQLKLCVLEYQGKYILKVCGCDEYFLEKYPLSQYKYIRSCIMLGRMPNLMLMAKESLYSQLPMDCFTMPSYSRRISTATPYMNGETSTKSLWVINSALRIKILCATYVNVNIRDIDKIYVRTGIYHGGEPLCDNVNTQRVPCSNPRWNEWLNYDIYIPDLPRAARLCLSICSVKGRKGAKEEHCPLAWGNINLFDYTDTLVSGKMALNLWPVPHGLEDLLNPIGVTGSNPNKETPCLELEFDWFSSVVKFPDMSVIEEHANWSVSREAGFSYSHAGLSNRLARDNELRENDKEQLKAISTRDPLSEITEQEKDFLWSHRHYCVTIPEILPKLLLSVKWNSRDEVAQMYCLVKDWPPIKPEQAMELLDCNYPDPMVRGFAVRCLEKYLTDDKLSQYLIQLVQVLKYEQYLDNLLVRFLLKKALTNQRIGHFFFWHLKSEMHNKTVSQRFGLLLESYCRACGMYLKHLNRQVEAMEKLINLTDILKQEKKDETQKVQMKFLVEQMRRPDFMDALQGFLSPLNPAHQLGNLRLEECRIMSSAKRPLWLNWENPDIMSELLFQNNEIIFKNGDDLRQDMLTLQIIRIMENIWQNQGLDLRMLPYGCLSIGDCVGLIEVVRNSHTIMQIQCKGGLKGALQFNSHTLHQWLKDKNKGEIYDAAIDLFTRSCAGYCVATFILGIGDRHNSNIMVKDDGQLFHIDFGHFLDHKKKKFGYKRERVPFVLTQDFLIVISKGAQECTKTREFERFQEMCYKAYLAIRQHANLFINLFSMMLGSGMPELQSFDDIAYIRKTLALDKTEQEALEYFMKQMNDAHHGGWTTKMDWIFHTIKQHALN
p110α/p85, sequence (P27986 whole entry partner): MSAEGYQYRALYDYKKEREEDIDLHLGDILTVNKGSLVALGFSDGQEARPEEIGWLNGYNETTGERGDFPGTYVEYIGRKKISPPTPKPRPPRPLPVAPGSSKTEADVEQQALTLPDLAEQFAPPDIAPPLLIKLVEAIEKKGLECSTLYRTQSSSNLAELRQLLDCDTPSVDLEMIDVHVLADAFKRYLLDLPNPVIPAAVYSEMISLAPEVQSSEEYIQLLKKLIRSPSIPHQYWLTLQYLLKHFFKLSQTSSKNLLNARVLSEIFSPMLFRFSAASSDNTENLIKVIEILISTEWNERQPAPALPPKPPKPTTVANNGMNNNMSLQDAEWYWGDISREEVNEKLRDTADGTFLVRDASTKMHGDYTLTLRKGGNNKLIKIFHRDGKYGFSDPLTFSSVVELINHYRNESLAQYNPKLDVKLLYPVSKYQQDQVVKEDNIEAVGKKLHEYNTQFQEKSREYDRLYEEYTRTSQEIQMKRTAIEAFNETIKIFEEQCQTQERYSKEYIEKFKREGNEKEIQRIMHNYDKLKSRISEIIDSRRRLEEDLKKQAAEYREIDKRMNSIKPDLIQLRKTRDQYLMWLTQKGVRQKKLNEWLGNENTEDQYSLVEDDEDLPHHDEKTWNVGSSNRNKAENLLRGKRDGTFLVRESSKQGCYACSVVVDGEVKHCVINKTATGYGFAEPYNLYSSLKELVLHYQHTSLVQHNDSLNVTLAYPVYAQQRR

SMILES	IC50 (p110α/p85)	melting point
COc1cccc2c1nc(C(F)F)n2-c1nc(-c2ccncc2)nc(N2CCN(C(=O)CCl)CC2)n1 (as salt: hydrochloride) [Example 6, 1-[4-[4-(chloroacetyl)-1-piperazinyl]-6-(4-pyridinyl)-1,3,5-triazin-2-yl]-2-(difluoromethyl)-4-methoxy-1H-benzimidazole]		> 300 °C
COc1cccc2c1nc(C(F)F)n2-c1nc(N2CCOCC2)nc(N2CCC(NC(=O)CCl)CC2)n1 [Example 22, 2-chloro-N-{1-[4-[2-(difluoromethyl)-4-methoxy-1H-benzimidazol-1-yl]-6-(4-morpholinyl)-1,3,5-triazin-2-yl]-4-piperidinyl}acetamide]	< 100 nM	252 to 254 °C
CN(C)CCCOc1cccc2c1nc(C(F)F)n2-c1nc(N2CCOCC2)nc(N2CCN(S(=O)(=O)CCl)CC2)n1 (as salt: hydrochloride) [Example 13]		243 to 247 °C
CCOc1cccc2c1nc(C(F)F)n2-c1nc(N2CCOCC2)nc(N2CCN(C(=O)CCl)CC2)n1 [Example 2, 1-[4-[4-(chloroacetyl)-1-piperazinyl]-6-(4-morpholinyl)-1,3,5-triazin-2-yl]-2-(difluoromethyl)-4-ethoxy-1H-benzimidazole]		217 to 219 °C
O=C(CCl)N1CCN(c2nc(N3CCOCC3)nc(-n3c(C(F)F)nc4c(O)cccc43)n2)CC1 [Example 5, 1-[4-[4-(Chloroacetyl)-1-piperazinyl]-6-(4-morpholinyl)-1,3,5-triazin-2-yl]-2-(difluoromethyl)-1H-benzimidazol-4-ol]		267 to 270 °C
O=C(CCl)N1CCN(c2nc(N3CCOCC3)nc(-n3c(C(F)F)nc4ccccc43)n2)CC1 [Example 3, 1-[4-[4-(Chloroacetyl)-1-piperazinyl]-6-(4-morpholinyl)-1,3,5-triazin-2-yl]-2-(difluoromethyl)-1H-benzimidazole]		189 to 191 °C
COc1cccc2c1nc(C(F)F)n2-c1nc(N2CCOCC2)nc(N(C)C2CCN(C(=O)CCl)CC2)n1 [Example 19, N-[1-(chloroacetyl)-4-piperidinyl]-4-[2-(difluoromethyl)-4-methoxy-1H-benzimidazol-1-yl]-N-methyl-6-(4-morpholinyl)-1,3,5-triazin-2-amine]	< 100 nM	211 to 213 °C
CN(C)CCCOc1cccc2c1nc(C(F)F)n2-c1nc(N2CCOCC2)nc(N(C)C2CCN(C(=O)CCl)CC2)n1 [Example 20, N-[1-(chloroacetyl)-4-piperidinyl]-4-{2-(difluoromethyl)-4-[3-(dimethylamino)propoxy]-1H-benzimidazol-1-yl}-N-methyl-6-(4-morpholinyl)-1,3,5-triazin-2-amine]	100 to 1000 nM	
COc1cccc2c1nc(C(F)F)n2-c1nc(N2CCOCC2)nc(N2CCN(S(=O)(=O)CBr)CC2)n1 [Example 12, 1-[4-{4-[(bromomethyl)sulfonyl]-1-piperazinyl}-6-(4-morpholinyl)-1,3,5-triazin-2-yl]-2-(difluoromethyl)-4-methoxy-1H-benzimidazole]	< 100 nM	259 to 262 °C
CN(C)CCCOc1cccc2c1nc(C(F)F)n2-c1nc(OC2CCN(C(=O)CCl)CC2)nc(N2CCOCC2)n1 [Example 46, 3-{[1-[4-{[1-(chloroacetyl)-4-piperidinyl]oxy}-6-(4-morpholinyl)-1,3,5-triazin-2-yl]-2-(difluoromethyl)-1H-benzimidazol-4-yl]oxy}-N,N-dimethyl-1-propanamine]	100 to 1000 nM	
O=C(CCl)N1CCN(c2nc(-c3cccc(O)c3)nc(N3CCOCC3)n2)CC1 [Example 1, 3-[4-[4-(chloroacetyl)-1-piperazinyl]-6-(4-morpholinyl)-1,3,5-triazin-2-yl]phenol]		242 to 245 °C
COc1cccc2c1nc(C(F)F)n2-c1nc(N2CCOCC2)nc(N2CCN(C(=O)C(Cl)Cl)CC2)n1 [Example 7, 1-[4-[4-(dichloroacetyl)-1-piperazinyl]-6-(4-morpholinyl)-1,3,5-triazin-2-yl]-2-(difluoromethyl)-4-methoxy-1H-benzimidazole]		275 to 278 °C
CN(C)CCCOc1cccc2c1nc(C(F)F)n2-c1nc(N2CCOCC2)nc(N(C)C2CCN(C(=O)CCl)CC2)n1 (as salt: hydrochloride) [Example 20, N-[1-(chloroacetyl)-4-piperidinyl]-4-{2-(difluoromethyl)-4-[3-(dimethylamino)propoxy]-1H-benzimidazol-1-yl}-N-methyl-6-(4-morpholinyl)-1,3,5-triazin-2-amine]		128 °C (dec.)
CN(C)CCCOc1cccc2c1nc(C(F)F)n2-c1nc(N2CCOCC2)nc(N2CCN(S(=O)(=O)CCl)CC2)n1 [Example 13]	> 1000 nM	
COc1cccc2c1nc(C(F)F)n2-c1nc(N2CCOCC2)nc(N2CCN(C(=O)C(C)Cl)CC2)n1 (stereo not shown) [Example 10, 1-[4-[4-(2-chloropropanoyl)-1-piperazinyl]-6-(4-morpholinyl)-1,3,5-triazin-2-yl]-2-(difluoromethyl)-4-methoxy-1H-benzimidazole]	< 100 nM	
COc1cccc2c1nc(C(F)F)n2-c1nc(N2CCOCC2)nc(N2CCN(C(=O)C(Cl)(Cl)Cl)CC2)n1 [Example 8, 2-(difluoromethyl)-1-{4-(4-morpholinyl)-6-[4-(trichloroacetyl)-1-piperazinyl]-1,3,5-triazin-2-yl}-1H-benzimidazol-4-yl methyl ether]	< 100 nM	

Next, values leading:

IC50 (p110α/p85)	melting point	SMILES
< 100 nM	233 to 236 °C	COc1cccc2c1nc(C(F)F)n2-c1nc(N2CCOCC2)nc(N2CC(N(C)C(=O)CCl)C2)n1 [Example 42, 2-chloro-N-{1-[4-[2-(difluoromethyl)-4-methoxy-1H-benzimidazol-1-yl]-6-(4-morpholinyl)-1,3,5-triazin-2-yl]-3-azetidinyl}-N-methylacetamide]
< 100 nM	231 to 233 °C	COc1cccc2c1nc(C(F)F)n2-c1nc(N2CCOCC2)nc(N2CCC[C@@H](NC(=O)CCl)C2)n1 [Example 33]
< 100 nM	206 to 208 °C	COc1cccc2c1nc(C(F)F)n2-c1nc(N2CCOCC2)nc(N2CCC(N(C)C(=O)CCl)CC2)n1 [Example 23, 2-chloro-N-{1-[4-[2-(difluoromethyl)-4-methoxy-1H-benzimidazol-1-yl]-6-(4-morpholinyl)-1,3,5-triazin-2-yl]-4-piperidinyl}-N-methylacetamide]
< 100 nM	170 to 172 °C	COc1cccc2c1nc(C(F)F)n2-c1nc(OC2CCN(C(=O)CCl)CC2)nc(N2CCOCC2)n1 [Example 45, 1-[4-{[1-(chloroacetyl)-4-piperidinyl]oxy}-6-(4-morpholinyl)-1,3,5-triazin-2-yl]-2-(difluoromethyl)-4-methoxy-1H-benzimidazole]
< 100 nM	219 to 221 °C	COc1cccc2c1nc(C(F)F)n2-c1nc(N2CCOCC2)nc(N(C)[C@@H]2CCN(C(=O)CCl)C2)n1 [Example 31, N-[(3R)-1-(chloroacetyl)pyrrolidinyl]-4-[2-(difluoromethyl)-4-methoxy-1H-benzimidazol-1-yl]-N-methyl-6-(4-morpholinyl)-1,3,5-triazin-2-amine]
< 100 nM	220 to 222 °C	COc1cccc2c1nc(C(F)F)n2-c1nc(N2CCOCC2)nc(N(C)C2CN(C(=O)CCl)C2)n1 [Example 44, N-[1-(chloroacetyl)-3-azetidinyl]-4-[2-(difluoromethyl)-4-methoxy-1H-benzimidazol-1-yl]-N-methyl-6-(4-morpholinyl)-1,3,5-triazin-2-amine]
< 100 nM	219 to 221 °C	COc1cccc2c1nc(C(F)F)n2-c1nc(N2CCOCC2)nc(N(C)[C@H]2CCN(C(=O)CCl)C2)n1 [Example 32, N-[(3S)-1-(chloroacetyl)pyrrolidinyl]-4-[2-(difluoromethyl)-4-methoxy-1H-benzimidazol-1-yl]-N-methyl-6-(4-morpholinyl)-1,3,5-triazin-2-amine]
100 to 1000 nM		CN(C)CCCOc1cccc2c1nc(C(F)F)n2-c1nc(N2CCOCC2)nc(N2CCC(N(C)C(=O)CCl)CC2)n1 [Example 24, 2-chloro-N-{1-[4-{2-(difluoromethyl)-4-[3-(dimethylamino)propoxy]-1H-benzimidazol-1-yl}-6-(4-morpholinyl)-1,3,5-triazin-2-yl]-4-piperidinyl}-N-methylacetamide]
< 100 nM		COc1cccc2c1nc(C(F)F)n2-c1nc(N[C@H]2CCCN(C(=O)CCl)C2)nc(N2CCOCC2)n1 [Example 38]
< 100 nM		COc1cccc2c1nc(C(F)F)n2-c1nc(N2CCOCC2)nc(N2CCC[C@H](N(C)C(=O)CCl)C2)n1 [Example 36, 2-chloro-N-{(3S)-1-[4-[2-(difluoromethyl)-4-methoxy-1H-benzimidazol-1-yl]-6-(4-morpholinyl)-1,3,5-triazin-2-yl]piperidinyl}-N-methylacetamide]
< 100 nM		COc1cccc2c1nc(C(F)F)n2-c1nc(N2CCOCC2)nc(N2CC[C@H](NC(=O)CCl)C2)n1 [Example 26, 2-chloro-N-{(3S)-1-[4-[2-(difluoromethyl)-4-methoxy-1H-benzimidazol-1-yl]-6-(4-morpholinyl)-1,3,5-triazin-2-yl]pyrrolidinyl}acetamide]

— patent US20110053907A1, “SUBSTITUTED PYRIMIDINES AND TRIAZINES AND THEIR USE IN CANCER THERAPY” (Auckland UniServices Limited, priority 2008, published 2011)
